From patent publication US11098083B2, “Peptide that regulates fat metabolism and method for regulating fat metabolism” (SHENZHEN INSTITUTES OF ADVANCED TECHNOLOGY, priority 2017, dated 2021)
Ends that are not written are not given here.

Experiments:
Assay type in all cases: in vivo, C57BL/6 mice
DIO-NAFLD mice = assay: i.p. injection of ISAP1 in DIO-NAFLD mice: epididymal fat pad
Excerpt: S110: a diet-induced obesity and nonalcoholic fatty liver disease (DIO-NAFLD) mouse model by HFD feeding may be established.
Thirty specific pathogen free (SPF) level healthy 6-week-old male C57BL/6 mice may be purchased from the Experimental Animal Center of Guangdong Province. A body mass of each mouse may be 18 g to 22 g. The mice may be divided into two groups, housed in a SPF-grade animal facility of SIAT. Six mice may be fed with ND (the ND contains 5% of fat; 53% of carbohydrate; 23% of protein, having total calories of […]) for 12 weeks to be a ND control group, and may be allowed to have food and water ad lib. The other mice may be fed with HFD (the HFD may be D12451, Research Diets, Inc.) for 12 weeks, and may be allowed to have food and water ad lib. Physiological indexes of the mice may be detected. […] In the present embodiment, an average body weight of the DIO-NAFLD mice may be more than 40 g. Comparison of average body weight of the mice of the established model with that of the mice in the ND control group is shown in FIG. 1. The arrow indicates a time point at which the HFD be started.
S121: effect of i.p. injection of ISAP1 on epididymal fat pad may be studied.
When the body weight of the each mouse fed with the HFD is more than 40 g, and when the blood glucose level of the each mouse is above 10 mMol, each DIO-NAFLD mouse may be treated with i.p. injection of ISAP1 for 6 consecutive weeks. The DIO-NAFLD mice may be divided into 4 groups, 6 mice in each group. ISAP1 may be dissolved in normal saline solution containing 0.01% of BSA. A dosage of 20 pmol/g of ISAP1 may be i.p. injected into each DIO-NAFLD mouse in group #1 once a day, and a dosage of 2 pmol/g of ISAP1 may be i.p. injected into each DIO-NAFLD mouse in group #2 once a day. OCN (mouse OCN protein) may be prepared and administered similarly as the ISAP1 at a dosage of 6 pmol/g to each mouse in group #3. The mice in group #4 may be treated with normal saline only as a HFD control group. After 6 weeks, the mice may be euthanized by application of 95% CO2, and epididymal fat pads of 4 mice selected from each group and an epididymal fat pad of a mouse from the ND control group may collected and weighed. Paraffin slices of each epididymal fat pad may be prepared, and an area of the adipocytes may be observed by microscopy.
Statistical analysis may be performed to compare with the HFD control group, wherein *: P<0.05, **: P<0.01, and ***: P<0.001.

HFD mice [1] = assay: gavage of peptides in HFD mice for 7 weeks: body weight; conditions: gavage 2 pmol/g of body weight for 7 weeks, compared with HFD control group, FIG. 7A
Excerpt: Six-week-old male wild-type C57BL/6 mice may be divided into 6 groups, 6 mice in each group. Group #1 may be provided with ND, and groups #2 to #6 may be provided with HFD. Group #2 may be treated as a HFD control group. Groups #3 to #6 may be experimental groups, and mice ingroups #3 to #6 may be gavaged with OCN, ISAP1, ISAP2, and ISAP3 respectively at 2 pmol/g of body weight for 7 weeks. Body weight of each mouse may be monitored and measured once a week.
Six-week-old male wild-type C57BL/6 mice may be divided into 6 groups, 6 in each group. Group #1 may be provided with ND to be a ND control group, and groups #2 to #6 may be provided with HFD. Group #2 may be treated as a HFD control group. Groups #3 to #6 may be treated as experimental groups and may be gavaged with OCN, ISAP1, ISAP2, and ISAP3 respectively at 2 pmol/g of body weight daily for 7 weeks. Body weight may be monitored and measured once a week.
Six-week-old male wild-type C57BL/6 mice may be divided into 6 groups, 6 in each group. Group #1 may be provided with ND to be a ND control group, groups #2 to #6 may be provided with HFD. Group #2 may be treated as a HFD control group. Groups #3 to #6 may be treated as experimental groups, and may be gavaged with OCN, ISAP1, ISAP2, and ISAP3 respectively at 2 pmol/g of body weight daily for 7 weeks. A body weight of each mouse may be monitored and measured once a week.

HFD mice [2] = assay: gavage of peptides in HFD mice: triglyceride in feces, week 7; conditions: gavage 2 pmol/g, feces of week 7, compared with HFD control group, FIG. 7B
Description: Feces of each mouse may be collected in week 7, baked at 60° C. for 3 days to ensure complete dryness. Then, 1 mg of the feces may be collected and soaked in 1 ml of a mixed solution consisting of chloroform and methanol in a ratio of 2:1. The soaked feces may then be disrupted with a tissue homogenizer and centrifuged to obtain a supernatant. The supernatant may be detected for triglyceride by the Roche blood biochemical analyzer. Experimental results are shown in FIG. 7B. **: P<0.01, ***: P<0.001.
Feces of the mice may be collected in the 7th week of the experiment and baked at 60° C. for 3 days to ensure complete dryness. Then, 1 mg of the feces may be weighed and soaked in 1 ml of a mixed solution containing chloroform and methanol in a ratio of 2:1. The feces with the mixed solution may be disrupted by a tissue homogenizer and centrifuged to obtain a supernatant. The supernatant may be detected for triglyceride by the Roche blood biochemical analyzer.
Feces of the mice may be collected in the 7th week of the experiment and baked at 60° C. for 3 days to ensure complete dryness. Then, 1 mg of the feces may be weighed and soaked in 1 ml of a mixed solution containing chloroform and methanol in a ratio of 2:1.The feces with the mixed solution may be disrupted by a tissue homogenizer and centrifuged to obtain a supernatant. The supernatant may be detected for triglyceride by the Roche blood biochemical analyzer.
Feces of each mouse may be collected in the 7th week of the experiment, and baked at 60° C. for 3 days to ensure complete dryness. 1 mg of the feces may be weighed and soaked in 1 ml of a mixed solution containing chloroform and methanol in a ratio of 2:1. The feces in the mixed solution may be disrupted by a tissue homogenizer and centrifuged to obtain a supernatant. The supernatant may be detected for triglyceride by the Roche blood biochemical analyzer.

Q: YLGASVPSPDPLEPT [ISAP1] was tested. Which “size of the epididymal fat pads” value (DIO-NAFLD mice; daily i.p. injection 6 weeks (20 or 2 pmol/g), compared with HFD control group, FIG. 2A) did it give?
A: significantly reduce the size

Q: What about the “weight (average mass) of the epididymal fat pad” value (DIO-NAFLD mice; daily i.p. injection 6 weeks (20 or 2 pmol/g), compared with HFD control group, FIG. 2B) of the same sequence?
A: significantly reduce the weight

Q: And the “sizes of adipocytes, H&E staining of epididymal fat pads” value (DIO-NAFLD mice; daily i.p. injection 6 weeks, compared with HFD control group, FIG. 2C)?
A: significantly reduce sizes of adipocytes

Q: What about the “average surface areas of single adipocytes calculated from H&E stained slices” value (DIO-NAFLD mice; daily i.p. injection 6 weeks, double-blind, FIG. 2D) of the same sequence?
A: significantly reduce the sizes of the adipocytes

Q: What about the body weight (HFD mice [1]) of the same sequence?
A: significant weight loss

Q: What about the “content (level) of triglyceride in the feces” value (HFD mice [2]) of the same sequence?
A: significantly increased
